Test results taken from US20220395539A1, “TRADITIONAL CHINESE MEDICINE COMPOSITION FOR TREATING PSORIASIS, PREPARATION METHOD THEREFOR AND USE THEREOF” (priority 2019, published 2022).

Test system: mice psoriasis-like skin lesion model induced by imiquimod
Experiment: mice psoriasis-like skin lesion model induced by imiquimod
Format: in vivo, C57BL/6 mice
Parameters: Pathological score Epidermal cell keratinization / Pathological score Dermal thickness / Pathological score Total score: scale not given here
Details: methotrexate 1 mg/kg
Experimental: II. Pharmacodynamic Experiment of the Medicine Composition of the Present Application on Mice Psoriasis-Like Skin Lesion Model Induced by Imiquimod. Researching subjects: […] (2015000562136). The mice were fed with standard diet and the animal room was kept at the temperature of 23±2° C. and the humidity of 40% to 70%. […] The medium-dosage group of 9-ingredient macules-eliminating prescription: clinical equivalent dose. The low-dosage group of 9-ingredient macules-eliminating prescription: the dosage in the low-dosage group was ¼ of that in the high-dosage group. [table] Modeling method and treatment: […] Clinical symptoms: observe any clinical symptoms of each animal at the beginning and during the experiment. Any abnormal response should be recorded. […] PASI method: photos of the skin lesions were taken every day, and the erythema, scales and infiltration thickening degree at the skin lesions were scored, and the three scores were added up to obtain the total scores. […] End of experiment: after the experiment, the animals were sacrificed by CO2 deep anesthesia, and the corresponding tissues were collected. Statistics of data: the experimental data are expressed by Mean±SD, and the data between two groups are tested by T test, P<0.05 is considered as significant difference.

[1] = Yujinyinxie tablet 0.72 g/kg, i.g. Qd
[2] = Yujinyinxie tablet 0.72 g/kg, i.g. Qd 7 days

Compound: CN(Cc1cnc2nc(N)nc(N)c2n1)c1ccc(C(=O)N[C@@H](CCC(=O)O)C(=O)O)cc1 [Methotrexate, methotrexate]
- effect on the weight compared with the model group (gavage 7 days, 9-ingredient 11.24, 5.62 and 2.81 g extract/kg): reduced the weight
- BW Day l [1]: 20.29 ± 0.68 g
- Severity index Day 4 (total score of skin lesion, PASI method) [1]: 1.65 ± 0.58
- Severity index Day 5 (total score of skin lesion, PASI method) [1]: 2.20 ± 0.48
- Severity index Day 6 (total score of skin lesion, PASI method) [1]: 1.90 ± 0.39
- Severity index Day 7 (total score of skin lesion, PASI method) [1]: 3.60 ± 0.63
- BW Day 8 [2]: 17.99 ± 2.71 g
- Pathological score Dermal inflammatory cells infiltration degree [2]: 1.10 ± 0.32,
- Pathological score Dermal thickness [2]: 1.50 ± 0.53
- Pathological score Epidermal cell keratinization [2]: 1.60 ± 0.84
- Pathological score Epidermal thickness [2]: 1.60 ± 0.52,
- Pathological score Total score [2]: 5.80 ± 1.14
- Severity index Day 8 (total score of skin lesion, PASI method) [2]: 3.05 ± 1.82
